# Columns and labels:
# Panc-1 cells [1] = test: Cell cycle analysis by DNA content (propidium iodide, flow cytometry); format: cell-based; details: 60 nM alone; control 5.5%
# Procedure: Understanding the status of cells cycles G1, S, G2 and M is indicative of the cytotoxic effect including apoptosis and DNA damage of anticancer drugs. In the current study FACS was used to measure the cell cycle stages in Panc 1 cells after exposure to anticancer drugs including drug combination. The synergistic effect of Gemcitabine with […]-00 on Panc-1 cancer cells was analyzed using propidium iodide based cell cycle analysis where total population of cells was sorted as sub G0, G1, S and G2/M populations according to total fluorescent intensity. […]-00 at a final concentration of 60 nM, 240 nM and 480 nM and Gemcitabine at a final concentration of 1 nM, 3 nM and 10 nM were analyzed in single dose and in all possible combinations of the dose range for the Gemcitabine and […]-00. Panc-1 cells were treated with Gemcitabine for 0 to 24 hrs. After 24 hrs the cells were washed twice with plain MEM. Fresh MEM with 10% serum (2 mL/well) was added to the wells, followed by treatment with […]-00 for 24 hrs to 96 hrs. After 96 hrs the treated cells were harvested, fixed, stained with propidium iodide and analyzed for specific cell arrest using DNA content analysis by flow cytometry. Adherent cells were trypsinized and washed with PBS or HBSS without Ca++ and Mg++ containing EDTA pH 8.0 and BSA. They were further isolated, centrifuged and total number of cells were counted and recorded. […]
# Panc-1 cells [2] = test: Microarray gene expression analysis; format: cell-based, human; details: Panc-1, microarray
# Source text: The goal of the microarray analysis was to evaluate putative gene expression signatures associated with the in vitro synergistic effect of the combination therapy of Gemcitabine with […]-00 in Panc-1 cells. The time points (3 hrs, 6 hrs, 12 hrs) were chosen to establish early molecular changes in the transcription profile for probable biomarkers and mechanism of action for the combination therapy. Approximately 20 million cells were lysed in Trizol Reagent (Invitrogen Corp, USA) and passed through a 21-gauge needle for 5-10 times before RNA extraction was performed. Total RNA extraction was performed using the RNeasy Mini kit (Qiagen, USA) according to the manufacturer's protocol. The final total RNA was eluted in nuclease-free water and the concentration/purity was determined by Nanodrop spectrophotometer (Thermo Fisher Scientific, Delaware, USA). cDNA generation and labeling: 20 μg of total RNA was reverse transcribed using amino allyl dUTP and oligo dT, the resulting cDNA was indirectly labeled with Cy3/Cy5 dyes (GE Healthcare, USA) using a fluorescent labeling kit (Promega Biosciences, USA). The concentration and dye incorporation of the labeled products were determined by Nanodrop spectrophotometer (Thermo Fisher Scientific, Delaware, USA). Equal amounts of labeled cDNA were denatured at 95° C. for 5 mins, cooled and microfuged at 13200 rpm for 5 mins before hybridization. Array fabrication and hybridization: 70-mer transcript oligonucleotides representing 36,480 human genes was purchased from Operon Biotechnologies (Germany) and spotted onto aminosilane coated glass slides (ArrayIt, USA) by contact printing using a Omnigrid (OG100) spotter (Genomic Solutions Inc, USA). Post printing, the slides were cross-linked with UV light at […], vacuumed, sealed and stored in the dark. The slides were pre-processed for background reduction using Pronto (Promega Life sciences, USA) pre-hyb kit as per the manufacturer's instructions. Hybridization was carried out in the GeneTAC Hybstation (Genomic Solutions Inc, USA) for 18 hrs. The hybridization protocol is as follows: 6 hrs at 42° C. (with agitation), 6 hrs at 35° C. (with agitation), and 6 hrs at 30° C. (with agitation). Post hybridization, the arrays were washed according to the manufacturer's protocol. The slides were dried by centrifugation at 1600 rpm for 5 mins. Scanning and image analysis: Post drying, the slides were scanned in a laser scanner (Genomic Solutions, USA) for Cy3 and Cy5 detection. The PMT settings were adjusted using the auto-exposure feature of the scanner. The TIFF files thus generated were exported to GeneTAC Integrator software (Genomic Solutions, USA) for image analysis. The resultant CSV file containing the annotated genome and the corresponding ratios were further used for data analysis.
# Panc-1 cells [3] = test: Protein expression using high content cell imaging system, and efficacy score; format: cell-based; details: for Efficacy score: cumulative over proteins of Table 7
# Procedure: The data was generated using cell imaging system, where, cells after drug exposure were treated with protein specific antibody, followed by detection markers for the antibody. The images were generated and protein levels quantitated as an indication of drug effect.
# Methodology: Panc-1 cells were seeded at a density of 5000 cells per well in 96 well plates and allowed recovery for 24 hrs in 5% CO2 incubator. After recovery, cells were challenged with Gemcitabine (IC30) for 24 hrs. After 24 hrs Gemcitabine was removed and fresh medium was added. […] The combination efficacy was identified against single treatments. At the end of the experiment Panc-1 cells were fixed and permeabilized. All the primary antibodies were added at a concentration according to manufacture protocol. After one hour incubation the cells were washed three times and labeled with secondary antibodies tagged with Dye Light 548 and nucleus was stained with Hoechest3342. After antibody labeling, cells were stained with the Cellomics whole Cell Stain Green to identify the cell's cytoplasmic area. Then all the plates were scanned in Cellomics ArrayScan® VTI HCS Reader. The results were analyzed using software that is designed for measuring the read from the imaging system.
# Expression of proteins listed in Table 7 were determined in terms of fluorescence unit obtained by using target activation algorithm from High content imaging system from Cellomics. • Protein expression data expressed as fluorescent units from Table 7 were used to generate expression ratio by comparing drug treatments (individual or combination) against the normal control with no drug treatment. The ratio of expression which is considered as dys-regulation (1.5 fold above or below the range for up-regulation and down regulation respectively) is subtracted from the normal range (±1.5) and is used to measure the efficacy score.
# Expression ratio=protein expression during drug treatment/protein expression under normal control.
# Efficacy score =Cumulative score (expression ratio−±1.50) for all proteins.
# [4] = 6 hours post treatment, control 3
# [5] = 36 hours post treatment, control 98
smiles,measurement,setting,value
"CN1CC[C@@H](c2c(O)cc(O)c3c(=O)cc(-c4ccccc4Cl)oc23)[C@@H]1CO.Cl (relative stereo) [P276-00, (+)-trans-2-(2-Chloro-phenyl)-5,7-dihydroxy-8-(2-hydroxy-methyl-1-methyl-pyrrolidin-3-y1)-chromen-4-one hydrochloride]",population of cells in sub G0 (apoptotic cells),Panc-1 cells [1],17.6%
same,CDK8 gene expression value (log value of intensities),Panc-1 cells [2],0.16
same,DICER1 gene expression value (log value of intensities),Panc-1 cells [2],0.14
same,DLG5 gene expression value (log value of intensities),Panc-1 cells [2],0.25
same,DNAI1 gene expression value (log value of intensities),Panc-1 cells [2],−0.20
same,FA38A gene expression value (log value of intensities),Panc-1 cells [2],−0.93
same,FGF5 gene expression value (log value of intensities),Panc-1 cells [2],0.23
same,HELLS gene expression value (log value of intensities),Panc-1 cells [2],0.62
same,HIST1H2BO gene expression value (log value of intensities),Panc-1 cells [2],−0.39
same,ID1 gene expression value (log value of intensities),Panc-1 cells [2],0.18
same,MKKS gene expression value (log value of intensities),Panc-1 cells [2],−0.08
same,PPIL4 gene expression value (log value of intensities),Panc-1 cells [2],0.30
same,RRM2 gene expression value (log value of intensities),Panc-1 cells [2],−0.14
same,SLC19A2 gene expression value (log value of intensities),Panc-1 cells [2],0.97
same,SNX7 gene expression value (log value of intensities),Panc-1 cells [2],−0.12
same,TMPRSS3 gene expression value (log value of intensities),Panc-1 cells [2],0.33
same,PTN protein expression,"Panc-1 cells [3]; 6 hours post treatment, control 1",2 fluorescence units
same,GADD45-α protein expression,Panc-1 cells [3]; [4],10 fluorescence units
same,ID1 protein expression,Panc-1 cells [3]; [4],1 fluorescence units
same,P27 protein expression,"Panc-1 cells [3]; 6 hours post treatment, control 6",7 fluorescence units
same,CDC25B protein expression,"Panc-1 cells [3]; 6 hours post treatment, control 7",2 fluorescence units
same,CDKN2A protein expression,"Panc-1 cells [3]; 6 hours post treatment, control 8",76 fluorescence units
same,CCND1 protein expression,"Panc-1 cells [3]; 6 hours post treatment, control 74",84 fluorescence units
same,GAPDH protein expression,"Panc-1 cells [3]; 6 hours post treatment, control 80",96 fluorescence units
same,CASP3 protein expression,"Panc-1 cells [3]; 6 hours post treatment, control 147",152 fluorescence units
same,MMP-1 protein expression,"Panc-1 cells [3]; 6 hours post treatment, control 501",618 fluorescence units
same,COX15 protein expression,"Panc-1 cells [3]; 6 hours post treatment, control 627",907 fluorescence units
same,COX2 protein expression,"Panc-1 cells [3]; 6 hours post treatment, control 635",406 fluorescence units
same,BAX protein expression,"Panc-1 cells [3]; 6 hours post treatment, control 819",700 fluorescence units
same,VEGF protein expression,"Panc-1 cells [3]; 6 hours post treatment, control 829",618 fluorescence units
same,BCL2 protein expression,"Panc-1 cells [3]; 6 hours post treatment, control 830",376 fluorescence units
same,pRB protein expression,"Panc-1 cells [3]; 6 hours post treatment, control 1240",1540 fluorescence units
same,Efficacy score,Panc-1 cells [3]; 6 hours,4.7
same,GADD45-α protein expression,"Panc-1 cells [3]; 16 hours post treatment, control 13",23 fluorescence units
same,CDC25B protein expression,"Panc-1 cells [3]; 16 hours post treatment, control 54",15 fluorescence units
same,CDKN2A protein expression,"Panc-1 cells [3]; 16 hours post treatment, control 64",9 fluorescence units
same,P27 protein expression,"Panc-1 cells [3]; 16 hours post treatment, control 67",12 fluorescence units
same,PTN protein expression,"Panc-1 cells [3]; 16 hours post treatment, control 76",12 fluorescence units
same,ID1 protein expression,"Panc-1 cells [3]; 16 hours post treatment, control 77",18 fluorescence units
same,CCND1 protein expression,"Panc-1 cells [3]; 16 hours post treatment, control 90",46 fluorescence units
same,GAPDH protein expression,"Panc-1 cells [3]; 16 hours post treatment, control 100",100 fluorescence units
same,CASP3 protein expression,"Panc-1 cells [3]; 16 hours post treatment, control 202",607 fluorescence units
same,VEGF protein expression,"Panc-1 cells [3]; 16 hours post treatment, control 579",264 fluorescence units
same,BCL2 protein expression,"Panc-1 cells [3]; 16 hours post treatment, control 644",81 fluorescence units
same,BAX protein expression,"Panc-1 cells [3]; 16 hours post treatment, control 711",644 fluorescence units
same,COX15 protein expression,"Panc-1 cells [3]; 16 hours post treatment, control 718",852 fluorescence units
same,MMP-1 protein expression,"Panc-1 cells [3]; 16 hours post treatment, control 929",264 fluorescence units
same,COX2 protein expression,"Panc-1 cells [3]; 16 hours post treatment, control 1109",375 fluorescence units
same,pRB protein expression,"Panc-1 cells [3]; 16 hours post treatment, control 2583",1400 fluorescence units
same,Efficacy score,Panc-1 cells [3]; 16 hours,10.8
same,GADD45-α protein expression,"Panc-1 cells [3]; 36 hours post treatment, control 19",31 fluorescence units
same,P27 protein expression,"Panc-1 cells [3]; 36 hours post treatment, control 96",5 fluorescence units
same,CCND1 protein expression,Panc-1 cells [3]; [5],25 fluorescence units
same,CDC25B protein expression,Panc-1 cells [3]; [5],4 fluorescence units
same,GAPDH protein expression,Panc-1 cells [3]; [5],2 fluorescence units
same,ID1 protein expression,Panc-1 cells [3]; [5],6 fluorescence units
same,PTN protein expression,"Panc-1 cells [3]; 36 hours post treatment, control 100",100 fluorescence units
same,CASP3 protein expression,"Panc-1 cells [3]; 36 hours post treatment, control 265",670 fluorescence units
same,BAX protein expression,"Panc-1 cells [3]; 36 hours post treatment, control 715",1120 fluorescence units
same,COX15 protein expression,"Panc-1 cells [3]; 36 hours post treatment, control 722",1327 fluorescence units
same,VEGF protein expression,"Panc-1 cells [3]; 36 hours post treatment, control 1093",355 fluorescence units
same,MMP-1 protein expression,"Panc-1 cells [3]; 36 hours post treatment, control 1316",355 fluorescence units
same,BCL2 protein expression,"Panc-1 cells [3]; 36 hours post treatment, control 1410",374 fluorescence units
same,CDKN2A protein expression,"Panc-1 cells [3]; 36 hours post treatment, control 1441",707 fluorescence units
same,pRB protein expression,"Panc-1 cells [3]; 36 hours post treatment, control 2840",1657 fluorescence units
same,Efficacy score,Panc-1 cells [3]; 36 hours,11.1
